The values below come from patent publication US10745355B2, “Anti-cancer compounds” (THE UNIVERSITY OF SYDNEY, priority 2015, dated 2020).

Experiment [1] relates to RN1 gliomaspheres (classical). Briefly: AlamarBlue cell viability assay, RN1 gliomaspheres. Conditions: 72 h of drug treatment, FIG. 11A. It is filed as cell-based. As for the experimental part: FIGS. 11A-11B. Efficacy of SC-38 (referred to as “CMPD1”), compound 1-08 (referred to as “cmpd 13”), compound 1-18 (referred to as “cmpd 7”), and compound 1-38 (referred to as “cmpd 10”) in primary gliomaspheres representing two glioblastoma subtypes. (11A) RN1, classical, and (11B) WK1, mesenchymal. Cellular efficacy (EC50) of test compounds was determined using AlamarBlue cell viability assay after 72 h of drug treatment. Data are mean±SEM from 3 independent experiments performed in triplicate.
U87 and U251 cell lines were obtained from the European Collection of Cell Cultures (ECACC) through CellBank Australia. U87-EGFRvIII cell line was obtained from their lab of origin (Nishikawa et al., 1994, Proc Natl Acad Sci USA 91: 7727-7731) and tested for EGFR amplification and mutation by immunoblotting and flow cytometry. Cells were cultured in DMEM medium (Invitrogen by Life Technologies, Carlsbad, Calif., USA) supplemented with 10% FBS (Sigma-Aldrich) at 37° C. and 5% CO2. Primary gliomaspheres (RN1, classical; WK1, mesenchymal) were derived from glioblastoma specimens (Day et al., 2013, Cancers 5: 357-371; Day et al., 2013, Cancer Cell 23: 238-248), maintained in StemPro NSC serum-free media supplemented with EGF and FGF (all Life Technologies), and grown on matrigel-coated flasks (Pollard et al., 2009, Cell Stem Cell 4: 568-580). […]
For orientation: The colour change of resazurin is a common sign of viable cells or microbes.

A further experiment addresses ALK (Homo sapiens, UniProt Q9UM73). As to the kind of experiment: Kinase profiling (ProQinase 33PanQinase Activity Assay), ALK. Type of experiment: biochemical. Conditions: read-out: residual activity, ALK. The protocol:
(§1) The kinase profiling of compound 1-08 at 10 and 50 μM was performed by ProQinase GmbH (Freiburg, Germany). A radiometric protein kinase assay (^33PanQinase® Activity Assay) and the non-radiometric ADP-Glo™ Assay (Promega, Madison, Wis., USA) were used for measuring kinase activity of 387 protein kinases and 13 lipid kinases, respectively. The results are shown in Table 3 (only the top 10 kinases are listed, and the selectivity score describes the portion of kinases inhibited more than 50% in relation to all tested kinases).

A further experiment deals with U251. As to the kind of experiment: Alamar blue cell viability assay, U251 cells. Type of experiment: cell-based. The conditions noted are these: Homo sapiens, U-251; 72 hours of treatment; mean±SEM, three independent experiments. The protocol:
U87 and U251 cell lines were obtained from the European Collection of Cell Cultures (ECACC) through CellBank Australia. U87-EGFRvIII cell line was obtained from their lab of origin (Nishikawa et al., 1994, Proc Natl Acad Sci USA 91: 7727-7731) and tested for EGFR amplification and mutation by immunoblotting and flow cytometry. Cells were cultured in DMEM medium (Invitrogen by Life Technologies, Carlsbad, Calif., USA) supplemented with 10% FBS (Sigma-Aldrich) at 37° C. and 5% CO2. Primary gliomaspheres (RN1, classical; WK1, mesenchymal) were derived from glioblastoma specimens (Day et al., 2013, Cancers 5: 357-371; Day et al., 2013, Cancer Cell 23: 238-248), maintained in StemPro NSC serum-free media supplemented with EGF and FGF (all Life Technologies), and grown on matrigel-coated flasks (Pollard et al., 2009, Cell Stem Cell 4: 568-580).
Cell viability was determined using Alamar blue assay after 72 hours of treatment (Table 2). EC50 values were calculated using non-linear regression on Graph Pad Prism version 5. c Log P values calculated using ChemBioDraw Software. Results are mean±SEM from three independent experiments performed in triplicates.

Another experiment deals with CSK (Homo sapiens, UniProt P41240). Briefly: Kinase profiling (ProQinase 33PanQinase Activity Assay), CSK. The conditions noted are these: read-out: residual activity, CSK. Type of experiment: biochemical. As for the experimental part:
as §1

The next experiment deals with LYN (Homo sapiens, UniProt P07948). As to the kind of experiment: Kinase profiling (ProQinase 33PanQinase Activity Assay), LYN. Type of experiment: biochemical. The conditions noted are these: read-out: residual activity, LYN. The protocol:
as §1

Another experiment has as its target BRK (Homo sapiens, UniProt Q13882). Briefly: Kinase profiling (ProQinase 33PanQinase Activity Assay), BRK. Type of experiment: biochemical. Conditions: read-out: residual activity, BRK. The protocol: as §1
For the next experiment, the target named is RON (Homo sapiens, UniProt Q04912). Briefly: Kinase profiling (ProQinase 33PanQinase Activity Assay), RON. Type of experiment: biochemical. The conditions noted are these: read-out: residual activity, RON. The protocol: as §1
Sequence of RON (Q04912 25-1400): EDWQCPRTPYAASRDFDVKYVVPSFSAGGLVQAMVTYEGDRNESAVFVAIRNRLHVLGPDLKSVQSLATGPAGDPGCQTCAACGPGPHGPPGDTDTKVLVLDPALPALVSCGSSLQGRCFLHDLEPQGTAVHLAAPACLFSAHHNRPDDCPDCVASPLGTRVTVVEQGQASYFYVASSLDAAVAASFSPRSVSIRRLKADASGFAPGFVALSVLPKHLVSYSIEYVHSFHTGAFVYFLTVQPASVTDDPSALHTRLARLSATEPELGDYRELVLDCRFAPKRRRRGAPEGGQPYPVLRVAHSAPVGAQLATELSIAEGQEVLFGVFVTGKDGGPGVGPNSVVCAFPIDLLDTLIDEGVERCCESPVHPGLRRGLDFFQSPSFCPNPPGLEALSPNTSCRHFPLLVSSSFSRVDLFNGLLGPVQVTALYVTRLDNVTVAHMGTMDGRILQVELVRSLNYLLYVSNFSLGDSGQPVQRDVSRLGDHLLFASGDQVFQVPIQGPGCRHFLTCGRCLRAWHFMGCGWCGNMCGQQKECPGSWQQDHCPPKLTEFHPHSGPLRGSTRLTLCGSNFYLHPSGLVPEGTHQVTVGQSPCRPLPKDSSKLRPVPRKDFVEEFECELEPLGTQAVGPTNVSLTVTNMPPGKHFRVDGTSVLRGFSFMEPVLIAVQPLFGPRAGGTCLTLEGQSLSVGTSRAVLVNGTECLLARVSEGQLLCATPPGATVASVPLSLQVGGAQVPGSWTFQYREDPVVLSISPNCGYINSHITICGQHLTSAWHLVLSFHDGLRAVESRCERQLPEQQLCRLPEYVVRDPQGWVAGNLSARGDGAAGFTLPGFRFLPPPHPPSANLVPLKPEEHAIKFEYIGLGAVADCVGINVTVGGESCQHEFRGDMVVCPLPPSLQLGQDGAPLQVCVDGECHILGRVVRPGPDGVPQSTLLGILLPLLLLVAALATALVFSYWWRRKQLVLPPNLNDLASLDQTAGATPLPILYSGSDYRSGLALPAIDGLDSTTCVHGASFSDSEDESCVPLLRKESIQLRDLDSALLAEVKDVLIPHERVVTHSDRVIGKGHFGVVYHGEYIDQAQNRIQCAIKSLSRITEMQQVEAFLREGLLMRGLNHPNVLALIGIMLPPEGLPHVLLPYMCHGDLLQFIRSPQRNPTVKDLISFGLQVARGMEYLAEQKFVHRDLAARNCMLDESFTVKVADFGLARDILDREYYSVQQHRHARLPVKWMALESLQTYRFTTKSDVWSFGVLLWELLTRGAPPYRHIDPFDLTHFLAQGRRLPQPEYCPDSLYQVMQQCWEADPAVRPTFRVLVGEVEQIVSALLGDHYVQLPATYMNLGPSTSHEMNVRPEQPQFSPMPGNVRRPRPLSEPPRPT

Sequence of LYN (P07948 whole entry): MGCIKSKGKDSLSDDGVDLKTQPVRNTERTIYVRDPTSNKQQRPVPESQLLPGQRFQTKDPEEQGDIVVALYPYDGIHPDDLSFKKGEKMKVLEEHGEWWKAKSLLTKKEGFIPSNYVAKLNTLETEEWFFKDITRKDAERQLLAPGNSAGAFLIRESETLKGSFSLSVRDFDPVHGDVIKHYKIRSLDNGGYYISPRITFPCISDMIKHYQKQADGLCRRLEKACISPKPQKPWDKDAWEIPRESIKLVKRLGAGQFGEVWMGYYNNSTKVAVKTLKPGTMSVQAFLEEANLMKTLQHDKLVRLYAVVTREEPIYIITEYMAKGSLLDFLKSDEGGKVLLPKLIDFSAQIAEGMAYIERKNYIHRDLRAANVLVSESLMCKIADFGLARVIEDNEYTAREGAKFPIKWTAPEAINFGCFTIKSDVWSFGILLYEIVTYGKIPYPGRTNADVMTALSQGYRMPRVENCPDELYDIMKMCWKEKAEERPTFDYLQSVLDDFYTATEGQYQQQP
Sequence of CSK (P41240 whole entry): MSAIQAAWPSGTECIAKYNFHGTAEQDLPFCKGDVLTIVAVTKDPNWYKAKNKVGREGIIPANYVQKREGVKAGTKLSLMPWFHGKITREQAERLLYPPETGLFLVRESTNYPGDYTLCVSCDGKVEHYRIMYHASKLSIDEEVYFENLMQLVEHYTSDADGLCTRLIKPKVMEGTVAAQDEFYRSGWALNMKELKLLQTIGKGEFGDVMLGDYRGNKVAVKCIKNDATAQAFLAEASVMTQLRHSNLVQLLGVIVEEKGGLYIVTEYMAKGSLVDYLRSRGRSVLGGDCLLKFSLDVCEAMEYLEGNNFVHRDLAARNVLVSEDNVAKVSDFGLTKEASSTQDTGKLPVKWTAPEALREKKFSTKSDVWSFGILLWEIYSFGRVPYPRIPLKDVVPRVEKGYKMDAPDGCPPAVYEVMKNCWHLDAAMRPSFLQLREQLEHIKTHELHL
Sequence of BRK (Q13882 whole entry): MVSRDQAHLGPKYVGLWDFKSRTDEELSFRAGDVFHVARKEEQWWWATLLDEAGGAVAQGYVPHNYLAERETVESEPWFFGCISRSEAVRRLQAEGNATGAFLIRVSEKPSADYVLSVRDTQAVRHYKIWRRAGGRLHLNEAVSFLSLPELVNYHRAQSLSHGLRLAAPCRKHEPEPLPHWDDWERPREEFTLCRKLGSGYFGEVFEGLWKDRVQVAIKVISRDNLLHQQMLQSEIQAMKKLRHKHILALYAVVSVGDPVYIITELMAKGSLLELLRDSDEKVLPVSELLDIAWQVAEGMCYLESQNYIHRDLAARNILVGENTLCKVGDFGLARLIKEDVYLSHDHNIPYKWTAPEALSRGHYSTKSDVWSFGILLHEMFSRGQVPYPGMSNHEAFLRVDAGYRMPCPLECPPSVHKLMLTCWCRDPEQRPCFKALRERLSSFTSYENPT
Sequence of ALK (Q9UM73 19-1620): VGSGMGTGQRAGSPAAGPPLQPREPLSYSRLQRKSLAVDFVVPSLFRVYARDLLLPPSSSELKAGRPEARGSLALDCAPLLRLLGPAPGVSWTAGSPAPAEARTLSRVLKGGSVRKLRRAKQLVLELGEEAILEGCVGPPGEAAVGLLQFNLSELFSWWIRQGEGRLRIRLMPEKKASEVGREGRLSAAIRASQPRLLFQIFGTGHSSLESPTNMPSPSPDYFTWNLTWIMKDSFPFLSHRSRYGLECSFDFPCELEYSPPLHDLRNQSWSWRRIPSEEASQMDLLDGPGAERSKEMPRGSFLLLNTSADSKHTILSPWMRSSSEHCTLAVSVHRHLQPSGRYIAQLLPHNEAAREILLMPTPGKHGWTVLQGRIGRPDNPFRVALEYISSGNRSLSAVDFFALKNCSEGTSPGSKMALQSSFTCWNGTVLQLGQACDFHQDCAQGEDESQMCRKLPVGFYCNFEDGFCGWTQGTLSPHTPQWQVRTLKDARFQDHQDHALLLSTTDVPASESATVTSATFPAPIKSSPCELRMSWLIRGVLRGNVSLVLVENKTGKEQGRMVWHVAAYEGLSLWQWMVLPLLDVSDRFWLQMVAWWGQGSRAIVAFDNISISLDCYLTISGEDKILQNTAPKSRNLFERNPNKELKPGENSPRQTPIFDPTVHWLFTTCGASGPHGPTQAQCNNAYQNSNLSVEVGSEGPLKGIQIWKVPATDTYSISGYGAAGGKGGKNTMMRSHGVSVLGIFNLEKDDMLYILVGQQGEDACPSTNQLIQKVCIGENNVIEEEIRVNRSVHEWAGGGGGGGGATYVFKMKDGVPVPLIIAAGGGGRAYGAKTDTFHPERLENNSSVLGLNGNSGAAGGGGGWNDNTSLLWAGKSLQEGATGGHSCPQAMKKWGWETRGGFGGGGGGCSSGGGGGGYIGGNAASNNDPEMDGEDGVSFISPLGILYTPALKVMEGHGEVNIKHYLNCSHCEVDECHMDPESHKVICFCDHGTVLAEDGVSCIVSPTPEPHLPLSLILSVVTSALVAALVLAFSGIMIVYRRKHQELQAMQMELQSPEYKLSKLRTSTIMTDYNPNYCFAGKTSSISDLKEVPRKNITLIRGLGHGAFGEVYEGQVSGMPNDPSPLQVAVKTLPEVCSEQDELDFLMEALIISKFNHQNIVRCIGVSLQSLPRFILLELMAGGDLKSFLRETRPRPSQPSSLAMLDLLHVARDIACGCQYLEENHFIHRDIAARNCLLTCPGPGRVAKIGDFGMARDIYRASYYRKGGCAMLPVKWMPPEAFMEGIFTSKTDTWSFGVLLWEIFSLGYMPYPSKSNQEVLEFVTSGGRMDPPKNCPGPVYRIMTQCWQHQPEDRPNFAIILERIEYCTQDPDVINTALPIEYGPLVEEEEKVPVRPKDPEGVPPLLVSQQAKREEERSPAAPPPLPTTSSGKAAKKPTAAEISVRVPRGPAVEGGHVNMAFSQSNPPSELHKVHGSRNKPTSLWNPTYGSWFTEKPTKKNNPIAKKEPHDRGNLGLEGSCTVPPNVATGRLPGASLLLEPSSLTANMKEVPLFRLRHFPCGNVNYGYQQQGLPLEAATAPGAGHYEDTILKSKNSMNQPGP

For the compound `O=C(CCCc1ccc(-c2cnc3ccccc3c2)cc1)Nc1ccc(O)cc1` [Compound 1-08, N-(4-hydroxyphenyl)-4-(4-(quinolin-3-yl)phenyl)butanamide], the EC50 (in general, the concentration giving half of the maximal effect) amounted to 540 nM in experiment [1] and 980 ± 200 nM in the experiment on U251. Further, the remaining activity at 10 µM on ALK (10 μM compound) is 76%; at CSK (10 μM compound) it was 89%; at LYN (10 μM compound), 87%; at BRK (10 μM compound) it was 74%; on RON (10 μM compound), 84%. Moreover, the remaining activity at 50 µM at ALK (50 μM compound) was found to be 21%; at CSK (50 μM compound) it was 21%; at LYN (50 μM compound) it was 21%; on BRK (50 μM compound) it was 29%; on RON (50 μM compound) it was 18%.
